From publication PMC10413649 (Science Advances, 2023)

Columns and labels:
[1] = system: laser-induced DNA damage sites in U2OS cells; experiment: Laser microirradiation, GFP-PAXX and mCherry-XLF coexpressed in U2OS cells with WT or mutated Ku70; assay type: cell-based, human; conditions: U2OS cells expressing Ku70 mutants; Fig. 5, B to E
[2] = system: mutants of Ku70 complexed to WT Ku80; experiment: ITC, mutant Ku70 (complexed to WT Ku80) with P-KBM; assay type: binding; conditions: three Ku70 mutants complexed to WT Ku80 (fig. S7)
Description: DNA-PKcs and full-length His-tagged Ku70/80 were expressed and purified according to ([6]). For crystallography and ITC, the full-length Ku70/80 and a truncated version deleted of its C terminus regions called KuΔC [Ku70 (1 to 544)/Ku80 (1 to 555)], were expressed in Sf21 insect cells using a MultiBac expression system. The Ku80 subunit contains a 10xHis-tag, followed by a Tobacco Etch Virus (TEV) protease site on its N terminus. The Ku70/Ku80 heterodimer was purified according to the protocol described in ([10]). The three KuFL variants with single mutation H162A, R165E, or R517E on Ku70 subunits were expressed in insect cells and purified with the same protocol.
Interaction between Ku-DNA complex and the different peptides (WT and variants) was measured by isothermal calorimetry using a VP-ITC machine. For ITC measurements, the full-length Ku heterodimer was used with the DNA G and F as previously used in ([14]). Before measurements, the Ku heterodimer was extensively dialyzed against buffer [20 mM tris (pH 8), 150 mM NaCl, and 5 mM β-mercaptoethanol]. The cell reaction (1.8 ml) was loaded with the preformed Ku-DNA complex at a 1:1.2 molar ratio respectively. Ku was loaded at 5 μM concentration. The syringe (300 μl) was loaded with the different peptides at different concentrations ranging between 50 and 100 μM. The Ku-DNA complex was titrated by automatic injections of 10 μl at 25°C. […]

[3] = system: laser-induced DNA damage sites in U2OS cells; experiment: Laser microirradiation, GFP-PAXX recruitment in mAID-Ku70 U2OS cells with WT or mutated Ku70; assay type: cell-based, human; conditions: mAID-Ku70 U2OS cells + IAA, Fig. 3B
Description: We also purified three mutants of Ku70 complexed to WT Ku80 (fig. S7). […] To assess the impact of Ku70 mutations in cells, we engineered a system in U2OS cells to allow replacement of endogenous Ku70 by mutant forms of the protein (Fig. 3A). As Ku is essential for the viability of human cells, we first knocked down endogenous Ku70 expression via the constitutive expression of a short hairpin–mediated RNA (shRNA) combined with cell rescue through expression of Ku70 tagged with a mini auxin-inducible degron (mAID). This allows for rapid degradation of endogenous Ku70 upon addition of auxin [indole-3-acetic acid (IAA)] ([28]). This system permits a strong and fast Ku70 depletion, with concomitant Ku80 depletion due to reciprocal stabilization of both Ku subunits (Fig. 3A).
The generation of U2OS cells expressing a mAID-Ku70 in place of the endogenous protein was achieved as follows. First, U2OS cells were cotransduced with two lentiviral constructs allowing both the expression of an shRNA against Ku70 and the expression of a Ku70 protein resistant to the shRNA and fused to a mAID tag at its N terminus. The latter vector also expresses a puromycin resistance gene, enabling the selection of a transduced cell population. […]

[4] = system: damaged chromatin fraction of U2OS cells expressing WT or mutated Ku70; experiment: Western blot of chromatin fractions after calicheamicin; assay type: cell-based, human; conditions: 3 nM calicheamicin for 1 hour, Fig. 3E
XLF = experiment: Direct PAXX-XLF interaction test; assay type: binding; conditions: tested outside the DNA-PK LR complex; method not described

## GFP-PAXX: GFP-tagged PAXX construct expressed in U2OS cells
[1]
  recruitment of coexpressed GFP-PAXX / mCherry-XLF to DNA damage sites with Ku70 mutations: compromised to various extents

## CC[C@H](C)[C@H](NC(=O)[C@H](CC(C)C)NC(=O)[C@H](CO)NC(=O)[C@H](CCC(=O)O)NC(=O)CNC(=O)[C@@H]1CCCN1C(=O)[C@H](CS)NC(=O)[C@H](CCCNC(=N)N)NC(=O)[C@H](CCCNC(=N)N)NC(=O)[C@H](CCCNC(=N)N)NC(C)=O)C(=O)N[C@@H](CC(N)=O)C(=O)N1CCC[C@H]1C(=O)NCC(=O)N[C@@H](Cc1ccccc1)C(=O)N[C@@H](CCCCN)C(=O)N[C@@H](CO)C(=O)N[C@@H](CCCCN)C(=O)N[C@@H](CCCCN)C(=O)N1CCC[C@H]1C(=O)N[C@@H](C)C(=O)NCC(=O)NCC(=O)N[C@H](C(=O)N[C@@H](CC(=O)O)C(=O)N[C@@H](Cc1ccccc1)C(=O)N[C@@H](CC(=O)O)C(=O)N[C@@H](CCC(=O)O)C(=O)N[C@H](C(=O)O)[C@@H](C)O)C(C)C [KBM]
[2]
  residual interaction of Ku70 mutants with P-KBM (ITC, words): no residual interaction

## PAXX: full-length PAXX, paralog of XRCC4 and XLF, 6xHis-tag, expressed in E. coli; WT protein also expressed in cells
[3]; no complementation
  PAXX recruitment to damage sites under Ku depletion: abolished under Ku depletion conditions
[4]
  recruitment to damaged chromatin fraction, Ku70 Patch 1 or Patch 2 mutated: not detected in damaged chromatin fraction
XLF
  direct interaction of PAXX and XLF: did not observe a direct interaction when tested

## WT Ku70: recombinant wild-type Ku70 used to replace degraded endogenous Ku70
[3]; complemented with WT Ku70
  PAXX recruitment to microirradiated areas, restored by recombinant Ku70: restored to levels similar to those in native U2OS cells
